Each structure is given as a SMILES string. Where only a bound is given, the exact number is not on record here.

In one assay the test system is COS-7. Description: Cytotoxicity against african green monkey COS7 cells after 48 hrs by MTT assay. Format: cell-based. The conditions noted are these: Chlorocebus aethiops, COS-7, 48 h. Background: Tetrazolium assays rely on reduction of a dye to a coloured formazan, in cell work by metabolically active cells.
Assay [1] has as its target T1, Tyrosine-protein phosphatase non-receptor type 2 (Homo sapiens, UniProt P17706).
T1 sequence (P17706 whole entry): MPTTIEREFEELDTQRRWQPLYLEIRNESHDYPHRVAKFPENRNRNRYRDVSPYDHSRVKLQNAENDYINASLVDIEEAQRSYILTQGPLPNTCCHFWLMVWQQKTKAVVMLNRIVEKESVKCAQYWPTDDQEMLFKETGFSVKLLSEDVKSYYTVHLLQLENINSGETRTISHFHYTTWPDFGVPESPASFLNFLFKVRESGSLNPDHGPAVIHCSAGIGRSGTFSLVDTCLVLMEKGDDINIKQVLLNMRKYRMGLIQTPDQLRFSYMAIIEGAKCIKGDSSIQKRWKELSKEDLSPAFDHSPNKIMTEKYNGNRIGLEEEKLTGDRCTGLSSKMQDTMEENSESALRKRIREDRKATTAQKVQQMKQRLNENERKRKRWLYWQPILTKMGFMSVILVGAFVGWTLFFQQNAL
Description: Inhibition of human recombinant TCPTP assessed as inhibition of hydrolysis of […] after 10 mins by spectrophotometry.

In assay [2] the target is T2, Tyrosine-protein phosphatase non-receptor type 1 (Homo sapiens, UniProt P18031).
T2 sequence (P18031 whole entry): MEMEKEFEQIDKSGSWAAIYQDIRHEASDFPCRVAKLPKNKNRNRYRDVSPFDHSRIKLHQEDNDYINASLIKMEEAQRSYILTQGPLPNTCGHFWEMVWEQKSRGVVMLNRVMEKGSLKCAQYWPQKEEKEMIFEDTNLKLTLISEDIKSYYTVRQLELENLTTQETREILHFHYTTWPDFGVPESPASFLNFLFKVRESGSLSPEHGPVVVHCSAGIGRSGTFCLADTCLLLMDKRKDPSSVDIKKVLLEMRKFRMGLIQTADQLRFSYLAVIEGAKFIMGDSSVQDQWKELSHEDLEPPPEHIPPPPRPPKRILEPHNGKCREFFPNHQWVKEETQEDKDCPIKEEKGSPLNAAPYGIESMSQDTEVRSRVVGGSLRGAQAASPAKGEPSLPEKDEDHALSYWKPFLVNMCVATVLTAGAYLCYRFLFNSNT
The assay is described as follows: Inhibition of human recombinant PTP1B assessed as inhibition of hydrolysis of […] after 10 mins by spectrophotometry.

For the next assay, the species on record is Homo sapiens. The assay is described as follows: Selectivity ratio of IC50 for human recombinant TCPT to IC50 for human recombinant PTP1B.

As a reminder, the IC50 is the concentration needed to halve the response being measured. For `CCOS(=O)(=O)/C=C/c1ccc(OCc2ccccc2)cc1OCCc1nc(-c2ccccc2)oc1C`, the concentration for half-maximal inhibition (IC50) (in the assay on COS-7; in assay [1]; in assay [2]) was above 100 µM each time.

With `COC(=O)/C=C/c1ccc(/C=C/c2ccc(O)c(O)c2)cc1`, in assay [2], the IC50 was above 14.9 µM.

`CCOS(=O)(=O)/C=C/c1ccc(OCCCCNc2nc(-c3ccccc3)c(-c3ccccc3)s2)cc1`: the IC50 in assay [1] was found to be 23.4 µM; in assay [2] it was 9.6 µM.

As for `CCOS(=O)(=O)/C=C/c1ccc(OCCCCNc2nc(-c3ccc(OC)cc3)cs2)cc1`, the figures for the concentration for half-maximal inhibition (IC50) in assay [1] and in assay [2] were above 100 µM and 10.4 µM, respectively. Also, the Ratio IC50 in the assay filed under Homo sapiens came out at 2.

As for `O=S(=O)(O)C(F)(F)c1ccc(-c2cccc(F)c2)cc1`, the IC50 in assay [2] worked out at 5 µM.

In the case of `CCOS(=O)(=O)/C=C/c1ccc(OC)c(OCCCCNc2nc(-c3ccccc3)c(-c3ccccc3)s2)c1`, the concentration for half-maximal inhibition (IC50) was 11.6 µM in assay [1] and 5.1 µM in assay [2]. Further, the Ratio IC50 in the assay filed under Homo sapiens was 2.

Consider `CCOS(=O)(=O)/C=C/c1ccc(OCCCCNc2nc(-c3ccccc3)cs2)cc1`, for which the IC50 in the assay on COS-7 was above 100 µM; in assay [1], 26.2 µM; in assay [2], 22 µM.

As for `CCOS(=O)(=O)/C=C/c1ccc(OCCCCNc2nc(-c3ccccc3)c(-c3ccccc3)s2)c(OC)c1`, the values for the concentration for half-maximal inhibition (IC50) in assay [1] and in assay [2] were 8.6 µM and 2.6 µM, respectively.

For the compound `CCOS(=O)(=O)/C=C/c1ccc(OCCCCNc2nc(-c3ccccc3)c(C)s2)cc1`, the IC50 in assay [1] was 10.6 µM; in assay [2] it was 5.8 µM.

Take `CCOS(=O)(=O)/C=C/c1ccc(OCCCCNc2nc(-c3ccccc3F)cs2)cc1`: the IC50 was 6.4 µM in assay [1] and 2.5 µM in assay [2]. The Ratio IC50 in the assay filed under Homo sapiens worked out at 2.

With `CCOS(=O)(=O)/C=C/c1ccc(OCCCCNc2nc(-c3cccc4ccccc34)cs2)cc1`, the IC50 in assay [1] was 8.7 µM; in assay [2] it was 2.4 µM. For the same compound, the Ratio IC50 in the assay filed under Homo sapiens is 2.

Take `CCOS(=O)(=O)/C=C/c1ccc(OCCCCNc2nc(-c3ccccc3Cl)cs2)cc1`: the IC50 in assay [1] was found to be 5 µM; in assay [2] it was 1.4 µM. Moreover, the Ratio IC50 in the assay listed under Homo sapiens came out at 2.

For `CCOS(=O)(=O)/C=C/c1ccc(OCc2ccccc2)cc1OCCc1csc(-c2ccccc2)n1`, the figures for the concentration for half-maximal inhibition (IC50) (with COS-7; in assay [1]; in assay [2]) were above 100 µM, 41.2 µM and 38.4 µM, respectively.

As for `CCOS(=O)(=O)/C=C/c1ccc(OC)c(OCCCCNc2nc(-c3ccccc3)cs2)c1`, the IC50 was 5.7 µM in assay [1] and 3.3 µM in assay [2]. Also, the Ratio IC50 in the assay filed under Homo sapiens was 2.

`CCOS(=O)(=O)/C=C/c1ccc(OCc2ccccc2)cc1OCCc1nc(-c2ccccc2)sc1C`: the IC50 (in the assay with COS-7; in assay [1]; in assay [2]) was above 100 µM throughout.

Regarding `CCOS(=O)(=O)/C=C/c1ccc(OCCCCNc2nc(-c3cccs3)cs2)cc1`, the half-inhibitory concentration (IC50) came to 11.2 µM in assay [1] and 8.6 µM in assay [2]. For the same compound, the Ratio IC50 in the assay filed under Homo sapiens was determined as 2.

`CCOS(=O)(=O)/C=C/c1ccc(OCCCCNc2nc(-c3cccc(OC)c3)cs2)cc1`: the IC50 stood at 8.2 µM in assay [1] and 2 µM in assay [2]. Also, the Ratio IC50 in the assay filed under Homo sapiens amounted to 2.

In the case of `CCOc1ccc(-c2cc(COc3ccc(/C=C/S(=O)(=O)OCC)cc3)no2)cc1`, the 50% inhibitory concentration (IC50) is above 100 µM in the assay on COS-7, above 100 µM in assay [1] and 44.4 µM in assay [2].

On to `CCOS(=O)(=O)/C=C/c1ccc(OCCCCNc2nc(-c3ccc(Br)cc3)cs2)cc1`, for which the values for the IC50 in assay [1] and in assay [2] were 3.6 µM and 1.3 µM, respectively. In the assay listed under Homo sapiens, the Ratio IC50 amounted to 2.

On to `CCOS(=O)(=O)/C=C/c1ccc(OCCc2nc(-c3ccccc3)oc2C)cc1`, for which the concentration for half-maximal inhibition (IC50) with COS-7 is 84.1 µM; in assay [1], above 100 µM; in assay [2], above 100 µM.

Turning to `CCOS(=O)(=O)/C=C/c1ccc(OCCCCNc2nc(-c3ccc(-c4ccccc4)cc3)cs2)cc1`, the concentration for half-maximal inhibition (IC50) in assay [1] is 15.7 µM; in assay [2] it was 1.9 µM. The Ratio IC50 in the assay filed under Homo sapiens turned out to be 2.

With `CCOS(=O)(=O)/C=C/c1ccc(OCCCCNc2nc(-c3ccc(F)cc3)cs2)cc1`, the figures for the IC50 in assay [1] and in assay [2] were 14.1 µM and 1.3 µM, respectively. The Ratio IC50 in the assay listed under Homo sapiens was 2.

For `CCOS(=O)(=O)/C=C/c1ccc(OCCCNc2nc(-c3ccccc3)cs2)cc1`, the half-inhibitory concentration (IC50) is above 100 µM in the assay with COS-7, 29.5 µM in assay [1] and 24.8 µM in assay [2].

With `CCOS(=O)(=O)/C=C/c1ccc(OCCCCNc2nc(-c3ccccc3)c(C)s2)c(OC)c1`, the IC50 is above 100 µM in assay [1] and 15.1 µM in assay [2].

In the case of `COS(=O)(=O)/C=C/c1ccc(OCc2ccccc2)cc1OCCc1nc(-c2ccccc2)oc1C`, the values for the IC50 (in the assay with COS-7; in assay [1]; in assay [2]) were above 100 µM, 39.6 µM and 24.5 µM, respectively.

With `CCCCOS(=O)(=O)/C=C/c1ccc(OCCc2nc(-c3ccccc3)oc2C)cc1`, the IC50 (with COS-7; in assay [1]; in assay [2]) was above 100 µM each time.

Take `CCOS(=O)(=O)/C=C/c1ccc(OCCNc2nc(-c3ccccc3)cs2)cc1`: the half-inhibitory concentration (IC50) (in the assay on COS-7; in assay [1]; in assay [2]) was above 100 µM each time.

As to `CCOS(=O)(=O)/C=C/Cc1nc(-c2ccccc2)sc1C`, the IC50 (in the assay with COS-7; in assay [1]; in assay [2]) was above 100 µM each time.

With `CCCCOS(=O)(=O)/C=C/c1ccc(OCCc2csc(-c3ccccc3)n2)cc1`, the IC50 (in the assay with COS-7; in assay [1]; in assay [2]) was above 100 µM throughout.

`CCOS(=O)(=O)/C=C/c1ccc(OCCCCNc2nc(-c3ccccn3)cs2)cc1`: the IC50 came to 31.9 µM in assay [1] and 1.5 µM in assay [2]. The Ratio IC50 in the assay filed under Homo sapiens came to 2.

For the compound `CCOS(=O)(=O)/C=C/c1ccc(OCc2cc(-c3ccccc3)on2)cc1`, the concentration for half-maximal inhibition (IC50) (with COS-7; in assay [1]; in assay [2]) was above 100 µM throughout.

Take `CCOS(=O)(=O)/C=C/c1ccc(OC)c(OCCCCNc2nc(-c3ccccc3)c(C)s2)c1`: the IC50 was 15.6 µM in assay [1] and 9.7 µM in assay [2]. Moreover, the Ratio IC50 in the assay listed under Homo sapiens was 2.

Regarding `CCCCOS(=O)(=O)/C=C/c1ccc(OCc2ccccc2)cc1OCCc1nc(-c2ccccc2)oc1C`, the IC50 (in the assay with COS-7; in assay [1]; in assay [2]) was above 100 µM throughout.

Values taken from ChEMBL document CHEMBL2086338, “Design, synthesis, and evaluation of 2-substituted ethenesulfonic acid ester derivatives as protein tyrosine phosphatase 1B inhibitors” (Eur J Med Chem, 2012).
